Results: patent US20240092756A1, “METHODS AND COMPOSITION FOR KRAS MODIFICATIONS” (2692372 ONTARIO, INC., priority 2020, published 2024)

Assays:
KRAS G12C = KRAS G12C (Homo sapiens, UniProt P01116, G12C); assay: SOS1-catalyzed KRAS coupled nucleotide exchange assay (Alpha technology); assay type: biochemical; design: His; key: A: KRAS G12C bound and modulated; conditions: inhibition of SOS1 mediated KRAS nucleotide exchange
Procedure: Method I: The inhibition of the SOS1-catalyzed nucleotide exchange activity of KRAS (e.g., KRAS G12C/C118A) was measured using Alpha (Amplified Luminescent Proximity Homogeneous Assay) technology. 20 nM GDP-bound human KRAS (G12C/C118A) protein was incubated with two-fold serially-diluted test compound or DMSO for 5 minutes at ambient temperature in reaction buffer (25 mM HEPES, pH 7.4; 10 mM MgCl2; 0.01% Triton X-100). For all subsequent steps, DTT was added to the reaction buffer at a final concentration of 1 mM. Next, GTP and SOS-1 were added in DTT-reaction buffer at final concentrations of 1.25 mM or 500 nM, respectively, and incubated at RT for 30 minutes. Finally, c-RAF RBD (50 nM final), Alpha glutathione donor beads (PerkinElmer; 20 μg/mL final), and AlphaLISAnickel chelate acceptor beads (PerkinElmer; 20 μg/mL final), all diluted in DTT-reaction buffer, were added. The reaction mixture was incubated at RT for 5 min, and then the plates were read on an EnVision® Multilabel Reader using the AlphaScreen protocol. Luminescence signal was measured at 570 nm following a 180 ms excitation at 680 nm. Signal intensity corresponded with the association of c-RAF RBD with GTP-bound KRAS G12C/C118A and was normalized to DMSO control.
Method II: Inhibition of the SOS1-catalyzed nucleotide exchange activity of KRAS^G12C was measured using Alpha technology (PerkinElmer). 50 nM GDP-bound human KRAS^G12C protein was incubated with serially-diluted compound or DMSO for 2 hrs at RT in RBD-RAS binding buffer (BPSBioscience). 1 mM GTP and 500 nM SOS-1 were added to the reaction mixture and incubated at RT for 30 min. GST-tagged RBD-cRAF was then added to the reaction mixture at a final concentration of 2.5 nM and incubated at RT for 30 min. Finally, Alpha Glutathione acceptor beads and Nickel chelate donor beads (PerkinElmer) were diluted to 1:500 and 1:250, respectively, and added to the reaction mixture. The final reaction was incubated at RT for 30 min. Plates were read on a TECAN SPARK® Multiplate Reader. The luminescence signal was measured at 615 nm following excitation at 680 nm. Signal intensity was normalized to DMSO control.

[1] = tested on: phospho-ERK1/2 in MIA PaCa-2 cells (express KRAS G12C); assay: ERK1/2 phosphorylation in MIA PaCa-2 cells; assay type: cell-based, human; design: key: X: KRAS G12C bound and modulated in cells
Procedure: MIA PaCa-2 cells were cultured in Dulbecco's Modified Eagle's Medium (Wisent) supplemented with 10% FBS, 2.5% horse serum, and 1% penicillin/streptomycin. Cells were seeded in 6-well plates at 500,000 cells/well and incubated at 37° C., 5% CO2 for 16 hours. Cells were treated with the indicated concentrations of compound or DMSO alone and incubated at 37° C., 5% CO2 for 6 or 24 hours. Conditioned media was discarded, and adherent cells were washed with PBS before they were scraped. Cell suspensions were centrifugated at 2,000 RPM for 5 minutes at 4° C. and supernatants were discarded. Cell pellets were resuspended with 1×RIPA buffer (Millipore) and incubated on ice for 15 minutes. Protein lysates were extracted by centrifugating at 20,000 RPM for 20 minutes at 4° C. Proteins were separated and total KRas protein levels were quantified by Simple Western Immunoassay (ProteinSimple) using the 2-40 kDa Separation Module for Jess according to the manufacturer's protocol, using a protein concentration of 0.5 μg/μl and antibodies targeting KRas (clone #4F3, Sigma) and GAPDH (clone #14C10, Cell Signaling) diluted to 1:10 and 1:1600, respectively, where the latter was used as a loading control. A 3:1 ratio of rabbit to mouse HRP-conjugated secondary antibodies was used for detection. KRas protein levels were quantified relative to GAPDH loading levels and subsequently normalized to the DMSO control. Phosphorylated ERK1/2 levels were quantified by Simple Western Immunoassay (ProteinSimple) using the Protein Normalization Assay Module for Jess according to the manufacturer's protocol using a protein concentration of 0.5 μg/μl and an antibody targeting phosphor-ERK1/2 (clone #D13.14.4E, Cell Signalling) diluted to 1:10. Phosphorylated ERK1/2 levels were normalized to the Jess Protein Normalization Reagent loading control and subsequently to the DMSO control.
MIA PaCa-2 cells were cultured in Dulbecco's Modified Eagle's Medium (Wisent) supplemented with 10% FBS, 2.5% horse serum, and 1% penicillin/streptomycin. Cells were seeded in 96-well plates at a density of 25,000 cells/well and incubated at 37° C., 5% CO2 for 24 hours. The next day, cells were starved in cell culture media containing 1% FBS only at 37° C., 5% CO2 for 16 hours. Following starvation, serially-diluted compounds or DMSO alone were added to cells and incubated at 37° C., 5% CO2 for 1 or 3 hours. Prior to cell lysis, 25 ng/ml human epidermal growth factor (hEGF) (Sigma) was added to the cells and incubated at 37° C., 5% CO2 for 10 minutes. Conditioned media was discarded, and adherent cells lysed and basal ERK1/2 phosphorylation levels were measured using the Phospho-ERK (Thr202/Tyr204) Cellular HTRF kit (Perkin Elmer) according to the manufacturer's protocol. The fluorescent signal of the acceptor antibody at a wavelength of 665 nm was normalized to that of the donor antibody at 620 nm. HTRF ratios were plotted and relative IC50 values were obtained using Prism (GraphPad).

[2] = target: KRAS G12C Lite (SEQ ID NO:3) (Homo sapiens, UniProt P01116, C118S/C51S/C80S/G12C/S136P/S39C); assay: Intact mass analysis (LC-MS) of covalent modification, KRAS G12C Lite; assay type: binding; design: key to KRAS Lite Modification: a: KRAS Lite modified; conditions: for KRAS Lite Modification: intact mass spectrometry, covalent modification of KRAS G12C Lite; for covalent adduct mass, His-tagged KRAS G12C Lite: modification by one molecule of compound
Procedure: (§1) The covalent modification of the proteins with the compounds were evaluated using intact mass analysis by liquid chromatography-mass spectrometry instrument (LC-MS/MS).
(§2) The reaction solution (20 μL) was prepared in 96-well plate and contained the protein (2 μM), the compound (100 μM), HEPES buffer (20 mM, pH 8), 2% DMSO, 2% glycerol, and 150 mM NaCl. The reaction was allowed to proceed for 24 h at 25° C. The reaction solution (1 μL) was injected into the LC/MS/MS without any further sample preparation.
(§3) The LC-MS/MS instrument comprises of a Waters G2-XS quadrupole-time of flight (QTof) mass spectrometer and a Waters Acuity I-class Ultra-High Performance Liquid Chromatography (UPLC) system. The I-class UPLC system includes a binary solvent manager (BSM), and an Acquity sample manager (SM). The mobile phase consisted of: A) 0.1% (v/v) formic acid in MilliQ water; B) 0.1% (v/v) formic acid acetonitrile. Gradients were run over 5 min and proceeded as follows: A:B, 85:15, 0.0-0.7 min, 85:15→15:85, 0.7-1.5 min, 10:90, 1.5-4 min, 10:90→85:15, 4-4.5 min, 85:15, 4.5-5 min. The analytical column was a Waters BEH C4 column 1.7 μm (50×1 mm) column with pore sizes of 300 Å. The TOF MS data was collected in positive ion mode (m/z of 400-2000 Da) using MassLynx software (Waters).
(§4) The spectral deconvolution was performed using UNIFI software (Waters). The added mass of the protein upon covalent modification to cysteine residues were specified. Multiple modification of up to 8 cysteine was allowed. All the adducts with signal intensities of <2% of the base peak were ignored. The % modification was calculated as the adduct signal intensity over the total intensities of the protein peaks and the adducts.

[3] = target: T1, KRAS G12C (SEQ ID NO:1 or SEQ ID NO:2) (Homo sapiens, UniProt P01116, G12C); assay: Intact mass analysis (LC-MS) of covalent modification, KRAS G12C; assay type: binding; design: key to KRAS G12C Modification: b: KRAS G12C modified; conditions: for KRAS G12C Modification: intact mass spectrometry, covalent modification of KRAS G12C FL; for covalent adduct mass, His-tagged KRAS G12C: modification by one molecule of compound
T1 construct: purchased
Procedure: as §1, §2, §3, §4

Cc1ccnc(C(C)C)c1-n1c(=O)nc(N2CCN(S(=O)(=O)c3c(F)c(F)c(F)c(F)c3OC(F)F)C[C@@H]2C)c2cc(F)c(-c3c(O)cccc3F)nc21 (single isomer, unassigned) [Compound 17A]
KRAS-SOS1 Nucleotide Exchange (KRAS G12C): A
pERK - MIA PaCa-2 - (6 hours, 5 uM) [1]: X
KRAS Lite Modification [2]: a
KRAS G12C Modification [3]: b

Cc1ccnc(C(C)C)c1-n1c(=O)nc(N2CCN(S(=O)(=O)c3c(F)c(F)c(F)c(F)c3OC(F)F)C[C@@H]2C)c2cc(F)c(-c3c(O)cccc3F)nc21 (single isomer, unassigned) [Compound 18A]
KRAS-SOS1 Nucleotide Exchange (KRAS G12C): A
pERK - MIA PaCa-2 - (6 hours, 5 uM) [1]: X
KRAS Lite Modification [2]: a
KRAS G12C Modification [3]: b

Cc1ccnc(C(C)C)c1-n1c(=O)nc(N2CCN(S(=O)(=O)c3c(F)c(F)c(F)c(F)c3F)C[C@@H]2C)c2cc(F)c(-c3c(O)cccc3F)nc21 [Compound 1A, 6-fluoro-7-(2-fluoro-6-hydroxyphenyl)-1-(2-isopropyl-4-methylpyridin-3-yl)-4-((S)-2-methyl-4-((perfluorophenyl)sulfonyl)piperazin-1-yl)pyrido[2,3-d]pyrimidin-2(1H)-one]
KRAS-SOS1 Nucleotide Exchange (KRAS G12C): A
pERK - MIA PaCa-2 - (6 hours, 5 uM) [1]: X
KRAS Lite Modification [2]: a
covalent adduct mass, His-tagged KRAS G12C Lite [2]: 22,179 Da
KRAS G12C Modification [3]: b
covalent adduct mass, His-tagged KRAS G12C [3]: 22,070 Da

Cc1ccnc(C(C)C)c1-n1c(=O)nc(N2CCN(S(=O)(=O)c3c(F)c(F)c(F)c(F)c3F)C[C@@H]2C)c2cc(F)c(Cl)nc21 [Compound 2A, 7-chloro-6-fluoro-1-(2-isopropyl-4-methylpyridin-3-yl)-4-((S)-2-methyl-4-((perfluorophenyl)sulfonyl)piperazin-1-yl)pyrido[2,3-d]pyrimidin-2(1H)-one]
KRAS-SOS1 Nucleotide Exchange (KRAS G12C): A
KRAS Lite Modification [2]: a
KRAS G12C Modification [3]: b

Cc1ccnc(C(C)C)c1-n1c(=O)nc(NS(=O)(=O)c2c(F)c(F)c(F)c(F)c2F)c2cc(F)c(-c3c(O)cccc3F)nc21 [Compound 3A, 2,3,4,5,6-pentafluoro-N-(6-fluoro-7-(2-fluoro-6-hydroxyphenyl)-1-(2-isopropyl-4-methylpyridin-3-yl)-2-oxo-1,2-dihydropyrido[2,3-d]pyrimidin-4-yl)benzenesulfonamide]
KRAS-SOS1 Nucleotide Exchange (KRAS G12C): A
pERK - MIA PaCa-2 - (6 hours, 5 uM) [1]: X
KRAS Lite Modification [2]: a
KRAS G12C Modification [3]: b

COc1c(F)c(F)c(F)c(F)c1S(=O)(=O)N1CCN(c2nc(=O)n(-c3c(C)ccnc3C(C)C)c3nc(-c4c(O)cccc4F)c(F)cc23)[C@@H](C)C1 [Compound 5A, 6-fluoro-7-(2-fluoro-6-hydroxyphenyl)-1-(2-isopropyl-4-methylpyridin-3-yl)-4-((S)-2-methyl-4-((2,3,4,5-tetrafluoro-6-methoxyphenyl)sulfonyl)piperazin-1-yl)pyrido[2,3-d]pyrimidin-2(1H)-one]
KRAS-SOS1 Nucleotide Exchange (KRAS G12C): A
pERK - MIA PaCa-2 - (6 hours, 5 uM) [1]: X
KRAS G12C Modification [3]: b

Cc1ccnc(C(C)C)c1-n1c(=O)nc(N2CCN(S(=O)(=O)c3c(F)c(F)c(F)c(F)c3C(F)(F)F)C[C@@H]2C)c2cc(F)c(-c3c(O)cccc3F)nc21 [Compound 6A, 6-fluoro-7-(2-fluoro-6-hydroxyphenyl)-1-(2-isopropyl-4-methylpyridin-3-yl)-4-((S)-2-methyl-4-((2,3,4,5-tetrafluoro-6-(trifluoromethyl)phenyl)sulfonyl)piperazin-1-yl)pyrido[2,3-d]pyrimidin-2(1H)-one]
KRAS-SOS1 Nucleotide Exchange (KRAS G12C): A
pERK - MIA PaCa-2 - (6 hours, 5 uM) [1]: X
KRAS Lite Modification [2]: a
covalent adduct mass, His-tagged KRAS G12C Lite [2]: 22,229 Da
KRAS G12C Modification [3]: b
covalent adduct mass, His-tagged KRAS G12C [3]: 22,120 Da

Cc1ccnc(C(C)C)c1-n1c(=O)nc(N2CCN(S(=O)(=O)c3c(F)c(F)c(F)c(F)c3OC(F)F)C[C@@H]2C)c2cc(F)c(-c3c(O)cccc3F)nc21 [Compound 16A, 4-((S)-4-((2-(difluoromethoxy)-3,4,5,6-tetrafluorophenyl)sulfonyl)-2-methylpiperazin-1-yl)-6-fluoro-7-(2-fluoro-6-hydroxyphenyl)-1-(2-isopropyl-4-methylpyridin-3-yl) pyrido[2,3-d]pyrimidin-2(1H)-one]
KRAS-SOS1 Nucleotide Exchange (KRAS G12C): A
KRAS Lite Modification [2]: a
KRAS G12C Modification [3]: b

Cc1cccc(C)c1-c1ccc2cc(CNS(=O)(=O)c3c(F)c(F)c(F)c(F)c3F)cnc2c1 [Compound 19A, N-[[7-(2,6-dimethylphenyl)-3-quinolyl]methyl]-2,3,4,5,6-pentafluoro-benzenesulfonamide]
pERK - MIA PaCa-2 - (6 hours, 5 uM) [1]: X
KRAS Lite Modification [2]: a
KRAS G12C Modification [3]: b
